We go through two compounds from ChEMBL document CHEMBL6096697, “Structure-Guided Discovery of Novel N4-(Substituted Thiazol-2-yl)-N2-(4-Substituted phenyl)pyrimidine-2,4-Diamines as Potent CDK2 and CDK9 Dual Inhibitors with High Oral Bioavailability” (J Med Chem, 2025).

A short description of data set [1]: Antiproliferative activity against HEK293 cells assessed as cell growth inhibition incubated for 48 hrs by MTT assay. Type of data set: toxicity, cell-based. The following applies: human.
A further data set relates to A2780. Briefly: Antiproliferative activity against human A2780 cells assessed as cell growth inhibition incubated for 48 hrs by MTT assay. The following applies: A2780, 48 h. The class given is functional, cell-based.
A further data set deals with MV4-11. Nature of the data set: Antiproliferative activity against human MV4-11 cells assessed as cell growth inhibition incubated for 48 hrs by MTT assay. The class given is functional, cell-based. The settings on record: MV4-11, 48 h.
Data set [2] deals with Cyclin-dependent kinase 2/cyclin A (Homo sapiens, UniProt P24941). Nature of the data set: Inhibition of CDK2/cyclin A (unknown origin) using […] incubated for 40 mins in presence of ATP by Kinase-Glo assay. The class given is protein-complex assay. (In general: Kinase-Glo reads ATP consumption through a luciferase reaction.)
A further data set concerns MDA-MB-231. Briefly: Antiproliferative activity against human MDA-MB-231 cells assessed as cell growth inhibition incubated for 48 hrs by MTT assay. The class given is functional, cell-based. The settings on record: MDA-MB-231, 48 h. (In general: Formazan colour is commonly taken as a measure of viable cells.)
A further data set concerns HepG2. Nature of the data set: Antiproliferative activity against human HepG2 cells assessed as cell growth inhibition incubated for 48 hrs by MTT assay. The class given is functional, cell-based. The following applies: HepG2, 48 h.
The subject of another data set is HeLa. Nature of the data set: Antiproliferative activity against human HeLa cells assessed as cell growth inhibition incubated for 48 hrs by MTT assay. The class given is functional, cell-based.
For the next data set, the system named is HCT-116. Briefly: Cytotoxicity against human HCT-116 cells assessed as cell growth inhibition incubated for 48 hrs by MTT assay. The following applies: HCT-116, 48 h. The class given is functional, cell-based.
The next data set concerns A549. Nature of the data set: Antiproliferative activity against human A549 cells assessed as cell growth inhibition incubated for 48 hrs by MTT assay. Type of data set: functional, cell-based. The settings on record: A549, 48 h.
The next data set deals with MCF7. Briefly: Antiproliferative activity against human MCF7 cells assessed as cell growth inhibition incubated for 48 hrs by MTT assay. The settings on record: MCF7, 48 h. Type of data set: functional, cell-based.
Data set [3] can be described thus: Inhibition of CDK9/cyclin T (unknown origin) using […] incubated for 40 mins in presence of ATP by Kinase-Glo assay. Further details: species or system Homo sapiens.
Data set [4] is described as follows: Inhibition of CDK1/cyclin B (unknown origin) using […] incubated for 40 mins in presence of ATP by Kinase-Glo assay. Details: species or system Homo sapiens.
The test system of the next data set is HT-29. Nature of the data set: Antiproliferative activity against human HT-29 cells assessed as cell growth inhibition incubated for 48 hrs by MTT assay. Type of data set: functional, cell-based. The following applies: HT-29, 48 h.
Another data set concerns U-87 MG. Briefly: Antiproliferative activity against human U-87 MG cells assessed as cell growth inhibition incubated for 48 hrs by MTT assay. Type of data set: functional, cell-based, U-87MG ATCC.
Data set [5] concerns the target Glycogen synthase kinase-3 alpha (Homo sapiens) (UniProt P49840). Briefly: Inhibition of GSK3-alpha (unknown origin) at 1 uM relative to control.
The species entered for a further data set is Homo sapiens. Nature of the data set: Inhibition of c-Src (unknown origin) at 1 uM relative to control.
In data set [6] the target is Aurora kinase A (Homo sapiens) (UniProt O14965). Nature of the data set: Inhibition of Aurora A (unknown origin) at 1 uM relative to control.
Aurora kinase A (Homo sapiens), sequence (O14965 whole entry): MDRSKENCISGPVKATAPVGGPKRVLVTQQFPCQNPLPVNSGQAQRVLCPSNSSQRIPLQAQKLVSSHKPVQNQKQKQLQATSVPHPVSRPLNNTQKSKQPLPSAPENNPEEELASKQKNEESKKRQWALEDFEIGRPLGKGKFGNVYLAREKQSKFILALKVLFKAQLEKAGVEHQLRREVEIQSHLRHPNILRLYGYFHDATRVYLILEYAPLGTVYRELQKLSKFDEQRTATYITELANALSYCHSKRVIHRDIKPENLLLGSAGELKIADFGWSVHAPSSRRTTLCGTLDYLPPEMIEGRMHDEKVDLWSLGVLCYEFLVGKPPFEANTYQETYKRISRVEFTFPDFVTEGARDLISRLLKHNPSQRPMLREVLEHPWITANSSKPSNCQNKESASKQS

What is called IC50 is the concentration needed to halve the response being measured. As a reminder, the inhibition is how much of the control response was suppressed. A high value points to a strong effect.

Where only a bound is given, the exact number is not on record here.

Glycogen synthase kinase-3 alpha (Homo sapiens), sequence (P49840 2-483 limits assumed): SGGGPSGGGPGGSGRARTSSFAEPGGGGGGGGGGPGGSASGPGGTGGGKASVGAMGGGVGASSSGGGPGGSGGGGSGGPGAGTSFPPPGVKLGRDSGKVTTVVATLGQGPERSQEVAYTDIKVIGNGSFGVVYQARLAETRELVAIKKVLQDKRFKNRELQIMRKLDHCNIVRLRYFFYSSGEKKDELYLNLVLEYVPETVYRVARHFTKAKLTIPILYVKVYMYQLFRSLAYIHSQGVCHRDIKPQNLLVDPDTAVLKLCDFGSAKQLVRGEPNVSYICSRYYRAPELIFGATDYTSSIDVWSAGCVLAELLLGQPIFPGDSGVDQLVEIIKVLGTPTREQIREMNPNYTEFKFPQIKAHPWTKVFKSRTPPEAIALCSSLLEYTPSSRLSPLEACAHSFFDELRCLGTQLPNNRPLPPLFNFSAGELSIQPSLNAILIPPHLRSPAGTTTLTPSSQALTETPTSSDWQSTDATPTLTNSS

As for `CCOC(=O)CNc1ccnc(Nc2ccc(OC)cc2)n1`, the IC50 at 48 h in data set [1] came to 126 µM. Besides, the IC50 with A2780 is over 30 µM; in the data set on MV4-11, 28.1 µM; in [2], 4.09 µM; in the data set with MDA-MB-231 it was 32.6 µM; in the data set on HepG2, over 30 µM; in the data set with HeLa, 29.3 µM. For the same compound, the IC50 was over 10 µM with HCT-116; over 30 µM in the data set with A549; over 30 µM with MCF7; 26.1 µM in data set [3]; over 30 µM in data set [4]; over 30 µM in the data set with HT-29. Besides, the IC50 in the data set with U-87 MG is over 30 µM.

Turning to `Cc1ncc(-c2ccnc(Nc3ccc(S(C)(=O)=O)cc3)n2)n1C(C)C` [AZD-5438], in data set [1], the IC50 at 48 h is 18 µM. Further, the IC50 turned out to be 1.26 µM in the data set with A2780; 2.08 µM in the data set with MV4-11; 0.151 µM with MDA-MB-231; 12.4 µM with HepG2; 0.477 µM with HCT-116; 1.47 µM in the data set with A549. For the same compound, the values for the IC50 (in data set [3]; in the data set on HT-29; in the data set on U-87 MG) were 0.018 µM, 1.16 µM and over 30 µM, respectively. The inhibition (in [5]; in the data set listed under Homo sapiens; in data set [6]) was over 50% in each case.
